Publication PMC5861220, “The Cytochrome P450-Mediated Metabolism Alternation of Four Effective Lignans From Schisandra chinensis in Carbon Tetrachloride-Intoxicated Rats and Patients With Advanced Hepatocellular Carcinoma” (Frontiers in Pharmacology, 2018)
Read-outs that look alike come from different tables or passages of the source.

Key:
CYP3A4/5 = assay: Lignan metabolism in human liver microsomes with ketoconazole; type: in vitro ADME; conditions: 5 μM
Method: (§1) The CYP450s involved in the metabolism of schisandrin, schisantherin A, deoxyshisandrin and γ-schisandrin in rat or human liver microsomes were confirmed by comparison of the metabolism ratio before and after the addition of selective inhibitors to CYP450 isozymes. […] The supernate was injected to HPLC-MS for analysis of the four lignans.

CYP1A2 = target: T1, CYP1A2 (Rattus norvegicus, UniProt P04799); assay: Lignan metabolism in rat liver microsomes with furafylline; type: in vitro ADME; conditions: 5 μM, + Furafylline 50 μM (CYP1A2)
T1 sequence (P04799 1-513): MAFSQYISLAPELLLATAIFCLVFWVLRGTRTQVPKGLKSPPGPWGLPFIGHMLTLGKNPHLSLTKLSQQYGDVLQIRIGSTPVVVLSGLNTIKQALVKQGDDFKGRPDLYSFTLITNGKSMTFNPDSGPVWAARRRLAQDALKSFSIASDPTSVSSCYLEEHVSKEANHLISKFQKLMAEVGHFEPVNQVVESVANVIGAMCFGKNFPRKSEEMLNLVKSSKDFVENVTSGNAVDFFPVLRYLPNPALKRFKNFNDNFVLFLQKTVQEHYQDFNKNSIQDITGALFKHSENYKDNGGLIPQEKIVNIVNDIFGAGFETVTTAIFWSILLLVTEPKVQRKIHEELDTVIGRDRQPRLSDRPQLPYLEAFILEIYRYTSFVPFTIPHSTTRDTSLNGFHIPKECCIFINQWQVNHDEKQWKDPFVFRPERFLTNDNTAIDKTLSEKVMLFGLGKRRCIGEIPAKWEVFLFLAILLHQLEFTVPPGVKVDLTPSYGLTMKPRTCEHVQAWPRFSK
Method: as §1

[1] = Pharmacokinetics of four lignans in rats after oral SC alcoholic extract; type: in vivo, rat; conditions: for AUC(0-t) / Cmax / half-life / CL/F / MRT last / Tmax: Sprague-Dawley, rat, plasma, po, 1.5 g/kg/day, oral SC alcoholic extract 1.5 g/kg/day for 4 days, n = 5; for CL/F: read-out: CLz/F (converted); for MRT last: read-out: MRT(0−t); for Tmax: read-out: Tmax
Method: The pharmacokinetic profiles of four lignans were studied in ALI rat after multiple oral administrations of SC alcoholic extract at dose of 1.5 g/kg/day. After the ALI rat was established, SC alcoholic extract suspended in 0.5% sodium carboxymethyl cellulose was given to ALI rats and the control via oral gavage once a day for 4 consecutive days. Before the last dosing, rats were fasted for 12 h while water was taken freely. Blood samples were collected at 0, 0.25, 0.5, 1, 2, 3, 4, 6, 8, 12, 24, 36, and 48 h after the last dosing. A cannula was surgically placed into the jugular vein for collection of blood samples (about 0.1 mL) and blood loss compensation using sterile isotonic saline in the pharmacokinetic study. Plasma was separated by centrifugation and stored at −20°C until analysis. Plasma concentrations of the four lignans were quantified using HPLC-MS analysis developed according to the reported method (Wang et al., [2008]).
Data fitting and pharmacokinetic parameter calculations were carried out using the Winnolin software. Non-compartmental analysis was used to calculate the pharmacokinetic parameters. Parameters, such as AUC and MRT, were calculated using statistical moment method.

[2] = tested on: rat intestine (jejunum segment); assay: In situ intestinal perfusion of four lignans; type: in vivo; conditions: for Perfusate (Percent of the initial dose) / Plasma (Percent of the initial dose) / Intestine (Percent of the initial dose) / Pblood / Plumen: 50 μM, n = 3; for Perfusate (Percent of the initial dose): intestinal perfusion 60 min; for Plasma (Percent of the initial dose) / Intestine (Percent of the initial dose) / Rise of cumulative plasma amount: intestinal perfusion; for Plasma (Percent of the initial dose): mesenteric vein blood; for Increase of remaining amount in perfusate: intestinal autoperfusion (60 min), CCl4-treated rats vs control; for Rise of cumulative plasma amount: CCl4-intoxicated rats vs control
Method: The surgical procedures of intestinal perfusion were conducted according to those published reports (Savina et al., [1981]). Hank's balanced salt solution (HBSS, pH 7.4) with four schisandra lignans (50 μM) at 37°C was infused into the jejunum segment at rate of 0.3 mL/min. Phenol Red (50 μM) was added to serve as a nonabsorbable marker for measuring water flux. Blood samples from mesenteric vein and perfusate were collected at 5-min interval. The plasma separated by centrifugation and perfusate was stored at −20°C until HPLC-MS analysis.
The permeability of four lignans across the rat intestine was calculated based on the disappearance of parent drug from the lumen (Plumen) as well as the appearance of the drug in blood (Pblood) using the following equations (Singhal et al., [1998]):
(1) Plumen = −Q/2πrlLnCout/Cin
(1) Pblood = ΔMB/Δt/2πrl{C}
where r is the radius of the perfused intestinal lumen; l is the length of the segment; Q is the flow rate of perfusate; Cin is the concentration of drug at the start of perfusion; and Cout is the steady-state concentration of drug exiting the lumen. ΔMB/Δt is the rate of drug appearance in mesenteric blood; and {C} is the logarithmic mean concentration of drug in the lumen.

[3] = In situ hepatic perfusion of four lignans; type: in vivo, rat; conditions: Sprague-Dawley, rat, perfusate, perfusate AUC(0−1h), n = 3
Method: (§2) In situ liver perfusion was performed similarly as the method described previously (Uraki et al., [2016]). […] The perfusate consisted of Krebs–Hensleit buffer (pH 7.4) containing sodium taurocholate (4.75 mg/L), 1% bovine serum albumin, and glucose (1.2 g/L) was oxygenated using carbogen, 95% O2/5% CO2. The perfusate at 37°C was infused into the portal vein at a flow rate of 30 mL/min in a recirculatory manner. After 10-min equilibration, four schisandra lignans were added to the reservoir (final concentration of 10 μM). Perfusate (0.5 mL) and bile samples were collected at 0, 10, 20, 30, 40, 50, and 60 min after the addition of lignans. The same volume of blank perfusion buffer was immediately added to the reservoir after collection of the perfusate samples. After hepatic perfusion, rat was sacrificed and liver was removed, blotted dry, and weighed.

rat liver = assay: In situ hepatic perfusion of four lignans; type: in vivo; conditions: hepatic perfusion 60 min, 10 μM, n = 3
Method: as §2

CYP3A = assay: Lignan metabolism in rat liver microsomes with ketoconazole; type: in vitro ADME; conditions: 5 μM, + Ketoconazole 100 μM (CYP3A)
Method: as §1

[4] = Identification of CYP450 isozymes in lignan metabolism, rat liver microsomes (no inhibitor / overall); type: in vitro ADME; conditions: for Metabolism rate: rat liver microsomes 1 mg/mL, 5 μM, Control (no inhibitor); for CYP450 isozymes participated in the metabolism (≥20% inhibition): rat liver microsomes incubation with selective inhibitors
Method: as §1

[5] = Identification of CYP450 isozymes in lignan metabolism, human liver microsomes (no inhibitor); type: in vitro ADME; conditions: human liver microsomes 0.5 mg/mL, 5 μM, Control (no inhibitor)
Method: as §1

Compound | Metabolism rate (CYP3A4/5) [nmol/min/mg] | Metabolism rate (CYP1A2) [nmol/min/mg] | AUC(0-t) ([1]; CCl4-intoxicated rats) [ng·h/mL] | Cmax ([1]; CCl4-intoxicated rats) [ng/mL] | half-life ([1]; CCl4-intoxicated rats) [h] | CL/F ([1]; CCl4-intoxicated rats) [mL/min/kg] | MRT last ([1]; CCl4-intoxicated rats) [h] | Tmax ([1]; CCl4-intoxicated rats) [h] | AUC(0-t) ([1]; Control (normal) rats) [ng·h/mL] | Cmax ([1]; Control (normal) rats) [ng/mL] | half-life ([1]; Control (normal) rats) [h] | CL/F ([1]; Control (normal) rats) [mL/min/kg] | MRT last ([1]; Control (normal) rats) [h] | Tmax ([1]; Control (normal) rats) [h] | Perfusate (Percent of the initial dose) ([2]; CCl4-intoxicated rats) | Plasma (Percent of the initial dose) ([2]; CCl4-intoxicated rats) | Intestine (Percent of the initial dose) ([2]; CCl4-intoxicated rats) | Pblood ([2]; CCl4-intoxicated rats) | Plumen ([2]; CCl4-intoxicated rats) | Perfusate (Percent of the initial dose) ([2]; Control rats) | further results
COc1cc2c(c(OC)c1OC)-c1c(cc(OC)c(OC)c1OC)C[C@](C)(O)[C@@H](C)C2 [Schisandrin, schisandrin] | 176.7 ± 27.6 | 215.1 ± 26.5 | 74700 ± 26300 | 3980 ± 1530 | 7.74 ± 1.21 | 6.61 | 12.8 ± 0.25 | 6.2 ± 2.05 | 19800 ± 7490 | 1370 ± 617 | 10.1 ± 4.12 | 24.3 | 11.1 ± 0.97 | 6 | 93.40 ± 1.05% of the initial dose | 0.84 ± 0.06% of the initial dose | 1.98 ± 0.13% of the initial dose | 0.063 ± 0.008 × 10^−4 cm/s | 2.420 ± 0.788 × 10^−4 cm/s | 86.16 ± 1.39% of the initial dose | Plasma (Percent of the initial dose) ([2]; Control rats): 0.44 ± 0.06% of the initial dose; Intestine (Percent of the initial dose) ([2]; Control rats): 2.22 ± 0.96% of the initial dose; Pblood ([2]; Control rats): 0.046 ± 0.008 × 10^−4 cm/s; Plumen ([2]; Control rats): 2.490 ± 0.141 × 10^−4 cm/s; Increase of remaining amount in perfusate [2]: about 10%; Rise of cumulative plasma amount [2]: about 91%; AUC at 10 μM ([3]; pH 7.4, CCl4-intoxicated rats): 3860 ± 70 ng·h/mL; AUC at 10 μM ([3]; pH 7.4, Control rats): 3230 ± 110 ng·h/mL; Total amount of analyte in bile (rat liver; CCl4-intoxicated rats): 1.06 ± 0.14 µg; Total amount of analyte in liver (rat liver; CCl4-intoxicated rats): 19.55 ± 2.07 µg; Total amount of analyte in bile (rat liver; Control rats): 1.15 ± 0.27 µg; Total amount of analyte in liver (rat liver; Control rats): 11.19 ± 1.18 µg; Metabolism rate (CYP3A): 172.9 ± 8.6 nmol/min/mg; Metabolism rate [4]: 233.3 ± 35.6 nmol/min/mg; CYP450 isozymes participated in the metabolism (≥20% inhibition) [4]: CYP2C6/11, CYP2E1, and CYP3A; Metabolism rate [5]: 263.4 ± 22.5 nmol/min/mg
COc1cc2c(c(OC)c1OC)-c1c(cc(OC)c(OC)c1OC)C[C@H](C)[C@@H](C)C2 [Deoxyshisandrin, deoxyshisandrin] | 38.2 ± 4.3 | 85.2 ± 7.6 | 16400 ± 5020 | 775 ± 239 | 13.1 ± 1.78 | 35.5 | 16.4 ± 1.02 | 5.8 ± 2.86 | 7880 ± 2810 | 564 ± 318 | 11.5 ± 2.08 | 80 | 11.7 ± 0.97 | 5 ± 2.24 | 91.77 ± 1.59% of the initial dose | 0.83 ± 0.06% of the initial dose | 1.79 ± 0.41% of the initial dose | 0.063 ± 0.018 × 10^−4 cm/s | 2.270 ± 0.363 × 10^−4 cm/s | 81.69 ± 1.77% of the initial dose | Reduction of systemic clearance (CLz/F) ([1]; CCl4 intoxicated rats vs control rats): ~56%; Plasma (Percent of the initial dose) ([2]; Control rats): 0.51 ± 0.03% of the initial dose; Intestine (Percent of the initial dose) ([2]; Control rats): 1.69 ± 0.30% of the initial dose; Pblood ([2]; Control rats): 0.053 ± 0.009 × 10^−4 cm/s; Plumen ([2]; Control rats): 2.337 ± 0.211 × 10^−4 cm/s; Increase of remaining amount in perfusate [2]: about 10%; Rise of cumulative plasma amount [2]: ~63%; AUC at 10 μM ([3]; pH 7.4, CCl4-intoxicated rats): 3620 ± 100 ng·h/mL; AUC at 10 μM ([3]; pH 7.4, Control rats): 3090 ± 120 ng·h/mL; Total amount of analyte in bile (rat liver; CCl4-intoxicated rats): 0.75 ± 0.07 µg; Total amount of analyte in liver (rat liver; CCl4-intoxicated rats): 14.57 ± 2.41 µg; Total amount of analyte in bile (rat liver; Control rats): 1.29 ± 0.30 µg; Total amount of analyte in liver (rat liver; Control rats): 9.71 ± 1.32 µg; Metabolism rate (CYP3A): 20.0 ± 1.6 nmol/min/mg; Metabolism rate [4]: 87.5 ± 7.8 nmol/min/mg; CYP450 isozymes participated in the metabolism (≥20% inhibition) [4]: CYP2C11, CYP2D2, CYP2E1, and CYP3A; Metabolism rate [5]: 162.5 ± 15.6 nmol/min/mg
